In patent publication US20260043061A1, “ENZYMATICALLY MEDIATED REACTIVE CRYSTALLIZATION OF STEVIOL GLYCOSIDES” (Arzeda Corp., priority 2022, published 2026) one finds Solubility data, which are given here for eight compounds.

A short description of this series: Solubility of select steviol glycosides at room temperature. Format: physicochemical. The conditions noted are these: in water, some species may not be completely pure. The source says:
Pure steviol glycosides are sparingly soluble in water. Solubility measurements may reflect the true thermodynamic solubility or a short-term kinetic solubility. The kinetic solubility value occurs when an isomeric form has been prepared that is not thermodynamically stable at long time scales yet has higher solubility at short times scales. A few steviol glycoside species have a free carboxylic acid group. These species tend to have higher solubility. Nevertheless, steviol glycosides are generally poorly soluble in water, as shown in Table 3 (certain measurements are for species that may not be completely pure).

`C=C1C[C@@]23CC[C@H]4[C@@](C)(CCC[C@@]4(C)C(=O)O[C@@H]4O[C@H](CO)[C@@H](O)[C@H](O)[C@H]4O)[C@@H]2CC[C@]1(O[C@@H]1O[C@H](CO)[C@@H](O)[C@H](O)[C@H]1O[C@@H]1O[C@H](CO)[C@@H](O)[C@H](O)[C@H]1O)C3` [Stevioside, stevioside] gave a Solubility of 0.44% wt %.
As for `C=C1C[C@@]23CC[C@H]4[C@@](C)(CCC[C@@]4(C)C(=O)O[C@@H]4O[C@H](CO)[C@@H](O)[C@H](O)[C@H]4O)[C@@H]2CC[C@]1(O[C@@H]1O[C@H](CO)[C@@H](O)[C@H](O[C@@H]2O[C@H](CO)[C@@H](O)[C@H](O)[C@H]2O)[C@H]1O[C@@H]1O[C@H](CO)[C@@H](O)[C@H](O)[C@H]1O)C3` [Reb A hydrate, rebaudioside A], the figure is 0.10% wt %.
With rebaudioside C [Reb C] the figure was 0.20% wt %; with `C=C1C[C@@]23CC[C@H]4[C@@](C)(CCC[C@@]4(C)C(=O)O[C@@H]4O[C@H](CO)[C@@H](O)[C@H](O)[C@H]4O)[C@@H]2CC[C@]1(O[C@@H]1O[C@H](CO)[C@@H](O)[C@H](O[C@@H]2O[C@H](CO)[C@@H](O)[C@H](O)[C@H]2O)[C@H]1O[C@@H]1O[C@H](CO)[C@@H](O)[C@H](O)[C@H]1O)C3` [Reb A anhydrous, rebaudioside A], 0.80% wt %; with `C=C1C[C@@]23CC[C@H]4[C@@](C)(CCC[C@@]4(C)C(=O)O[C@@H]4O[C@H](CO)[C@@H](O)[C@H](O)[C@H]4O)[C@@H]2CC[C@]1(O[C@@H]1O[C@H](CO)[C@@H](O)[C@H](O[C@@H]2O[C@H](CO)[C@@H](O)[C@H](O)[C@H]2O)[C@H]1O[C@@H]1O[C@H](CO)[C@@H](O)[C@H](O)[C@H]1O)C3` [Reb A, rebaudioside A], 0.46% wt %.
As for `C=C1C[C@@]23CC[C@H]4[C@@](C)(CCC[C@@]4(C)C(=O)O[C@@H]4O[C@H](CO)[C@@H](O)[C@H](O)[C@H]4O[C@@H]4O[C@H](CO)[C@@H](O)[C@H](O)[C@H]4O)[C@@H]2CC[C@]1(O[C@@H]1O[C@H](CO)[C@@H](O)[C@H](O[C@@H]2O[C@H](CO)[C@@H](O)[C@H](O)[C@H]2O)[C@H]1O[C@@H]1O[C@H](CO)[C@@H](O)[C@H](O)[C@H]1O)C3` [Reb D, rebaudioside D], the figure is 0.10% wt %.
Take `C=C1C[C@@]23CC[C@H]4[C@@](C)(CCC[C@@]4(C)C(=O)O[C@@H]4O[C@H](CO)[C@@H](O)[C@H](O)[C@H]4O)[C@@H]2CC[C@]1(O[C@@H]1O[C@H](CO)[C@@H](O)[C@H](O[C@@H]2O[C@H](CO)[C@@H](O)[C@H](O)[C@H]2O)[C@H]1O[C@@H]1O[C@H](CO)[C@@H](O)[C@H](O)[C@H]1O)C3` [Reb A 97%, rebaudioside A]: the Solubility is reported as 0.80% wt %.
As for `C=C1C[C@@]23CC[C@H]4[C@@](C)(CCC[C@@]4(C)C(=O)O[C@@H]4O[C@H](CO)[C@@H](O)[C@H](O[C@@H]5O[C@H](CO)[C@@H](O)[C@H](O)[C@H]5O)[C@H]4O[C@@H]4O[C@H](CO)[C@@H](O)[C@H](O)[C@H]4O)[C@@H]2CC[C@]1(O[C@@H]1O[C@H](CO)[C@@H](O)[C@H](O[C@@H]2O[C@H](CO)[C@@H](O)[C@H](O)[C@H]2O)[C@H]1O[C@@H]1O[C@H](CO)[C@@H](O)[C@H](O)[C@H]1O)C3` [Reb M, rebaudioside M], the figure is 0.05% wt %.
